Target: T1, human GLP-1R (Homo sapiens, UniProt P43220)
T1 construct: host or cells: HEK293
Assay: GLP-1R cAMP assay (Example B1a, HTRF, 30 min at room temperature)
Type: cell-based
Details: cAMP accumulation in HEK293 expressing human GLP-1R, no BETP, 30 min room temperature (Method B1a, compounds ID 1-609), Table 1; read-out: EC50
Procedure, shortened: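 Competitive HTRF read-out of cAMP after 30 min room-temperature stimulation, BETP absent, of human GLP-1R-HEK293 cells (1,000/well) in HEPES buffer with 500 μM IBMX and 0.1% BSA. Activation normalised to GLP-1(7-37) positive control. EC50 from 4-parameter non-linear regression.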

T1 sequence (P43220 24-463): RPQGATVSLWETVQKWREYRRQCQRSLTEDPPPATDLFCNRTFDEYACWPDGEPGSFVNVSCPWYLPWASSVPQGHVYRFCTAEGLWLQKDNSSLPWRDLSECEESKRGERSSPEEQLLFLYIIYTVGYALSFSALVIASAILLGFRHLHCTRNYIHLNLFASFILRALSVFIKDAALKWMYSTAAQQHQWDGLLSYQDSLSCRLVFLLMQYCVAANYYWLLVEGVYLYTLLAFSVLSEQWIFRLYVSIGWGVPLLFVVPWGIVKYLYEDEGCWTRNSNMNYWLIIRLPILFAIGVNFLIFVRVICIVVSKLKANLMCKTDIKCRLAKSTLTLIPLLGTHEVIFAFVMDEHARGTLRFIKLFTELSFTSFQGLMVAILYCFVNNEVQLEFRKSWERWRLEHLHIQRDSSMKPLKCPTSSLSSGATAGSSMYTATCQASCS

Compared with CC[C@H]1C[C@]1(c1noc(=O)[nH]1)n1c(C(=O)N2[C@@H]3CC[C@H]2c2c(nn(-c4cc(C)c(F)c(C)c4)c2-n2ccn(-c4ccc5c(cnn5C)c4F)c2=O)C3)cc2cc([C@H]3CCOC(C)(C)C3)ccc21 [Compound 434, 3-[(1S,2S)-1-[5-[(4S)-2,2-dimethyltetrahydropyran-4-yl]-2-[(1S,8R)-4-(4-fluoro-3,5-dimethyl-phenyl)-3-[3-(4-fluoro-1-methyl-indazol-5-yl)-2-oxo-imidazol-1-yl]-4,5,11-triazatricyclo[6.2.1.02,6]undeca-2,5-diene-11-carbonyl]indol-1-yl]-2-ethyl-cyclopropyl]-4H-1,2,4-oxadiazol-5-one], CC[C@@H]1C[C@@]1(c1noc(=O)[nH]1)n1c(C(=O)N2[C@@H]3CC[C@H]2c2c(nn(-c4cc(C)c(F)c(C)c4)c2-n2ccn(-c4ccc5c(cnn5C)c4F)c2=O)C3)cc2cc([C@H]3CCOC(C)(C)C3)ccc21 [Compound 435, 3-[(1R,2R)-1-[5-[(4S)-2,2-dimethyltetrahydropyran-4-yl]-2-[(1S,8R)-4-(4-fluoro-3,5-dimethyl-phenyl)-3-[3-(4-fluoro-1-methyl-indazol-5-yl)-2-oxo-imidazol-1-yl]-4,5,11-triazatricyclo[6.2.1.02,6]undeca-2,5-diene-11-carbonyl]indol-1-yl]-2-ethyl-cyclopropyl]-4H-1,2,4-oxadiazol-5-one] is 22-fold higher in EC50: 175 nM for the first, 3870 nM for the second.

Cc1cc(-n2nc3c(c2-n2ccn(-c4ccc5[nH]ncc5c4F)c2=O)[C@@H]2CC[C@H](C3)N2C(=O)c2cc3cc([C@H]4CCOC5(CC5)C4)ccc3n2[C@@]2(c3noc(=O)[nH]3)C[C@@H]2C)cc(C)c1F [Compound 436, 3-((1S,2S)-1-(2-((4S,7R)-3-(3-(4-fluoro-1H-indazol-5-yl)-2-oxo-2,3-dihydro-1H-imidazol-1-yl)-2-(4-fluoro-3,5-dimethylphenyl)-2,4,5,6,7,8-hexahydro-4,7-epiminocyclohepta [c]pyrazole-9-carbonyl)-5-((S)-4-oxaspiro[2.5]octan-7-yl)-1H-indol-1-yl)-2-methylcyclopropyl)-1,2,4-oxadiazol-5 (4H)-one] and Cc1cc(-n2nc3c(c2-n2ccn(-c4ccc5cnncc5c4F)c2=O)[C@@H]2CC[C@H](C3)N2C(=O)c2cc3cc([C@H]4CCOC5(CC5)C4)ccc3n2[C@@]2(c3noc(=O)[nH]3)C[C@@H]2C)cc(C)c1F [Compound 437, 3-((1S,2S)-1-(2-((4S,7R)-2-(4-fluoro-3,5-dimethylphenyl)-3-(3-(5-fluorophthalazin-6-yl)-2-oxo-2,3-dihydro-1H-imidazol-1-yl)-2,4,5,6,7,8-hexahydro-4,7-epiminocyclohepta [c]pyrazole-9-carbonyl)-5-((S)-4-oxaspiro[2.5]octan-7-yl)-1H-indol-1-yl)-2-methylcyclopropyl)-1,2,4-oxadiazol-5 (4H)-one] are within 1.5-fold of each other in EC50: 70 nM for the first, 55 nM for the second.

Compared with Cc1cc(-n2nc3c(c2-n2ccn(-c4ccc5c(cnn5C)c4F)c2=O)[C@@H]2CC[C@H](C3)N2S(=O)(=O)c2cc3cc(C4CCOC(C)(C)C4)ccc3n2[C@@]2(c3noc(=O)[nH]3)C[C@@H]2C)cc(C)c1F (stereo partly drawn) [Compound 503, 3-((1S,2S)-1-(5-(2,2-dimethyltetrahydro-2H-pyran-4-yl)-2-(((4S,7R)-3-(3-(4-fluoro-1-methyl-1H-indazol-5-yl)-2-oxo-2,3-dihydro-1H-imidazol-1-yl)-2-(4-fluoro-3,5-dimethylphenyl)-2,4,5,6,7,8-hexahydro-4,7-epiminocyclohepta [c]pyrazol-9-yl)sulfonyl)-1H-indol-1-yl)-2-methylcyclopropyl)-1,2,4-oxadiazol-5 (4H)-one], Cc1cc(-n2nc3c(c2-n2ccn(-c4ccc5c(cnn5C)c4F)c2=O)[C@@H]2CC[C@H](C3)N2S(=O)(=O)c2cc3cc(C4CCOC(C)(C)C4)ccc3n2[C@]2(c3noc(=O)[nH]3)C[C@@H]2C)cc(C)c1F (stereo partly drawn) [Compound 504, 3-[(1R,2S)-1-[5-(2,2-dimethyltetrahydropyran-4-yl)-2-[[(1S,8R)-4-(4-fluoro-3,5-dimethyl-phenyl)-3-[3-(4-fluoro-1-methyl-indazol-5-yl)-2-oxo-imidazol-1-yl]-4,5,11-triazatricyclo[6.2.1.02,6]undeca-2,5-dien-11-yl]sulfonyl]indol-1-yl]-2-methyl-cyclopropyl]-4H-1,2,4-oxadiazol-5-one] is 20-fold higher in EC50: 97.8 nM for the first, 1930 nM for the second.

Going from Cc1cc(-n2nc3c(c2-n2ccn(-c4ccc5[nH]ncc5c4F)c2=O)CN(C(=O)c2cc4cc([C@H]5CCOC(C)(C)C5)ccc4n2[C@@]2(c4noc(=O)[nH]4)C[C@@H]2C)CCC3)cc(C)c1F [Compound 505, 3-[(1S,2S)-1-[5-[(4S)-2,2-dimethyltetrahydropyran-4-yl]-2-[2-(4-fluoro-3,5-dimethyl-phenyl)-3-[3-(4-fluoro-1H-indazol-5-yl)-2-oxo-imidazol-1-yl]-4,6,7,8-tetrahydropyrazolo[4,3-c]azepine-5-carbonyl]indol-1-yl]-2-methyl-cyclopropyl]-4H-1,2,4-oxadiazol-5-one] to Cc1cc(-n2nc3c(c2-n2ccn(-c4ccc5c(cnn5C)c4F)c2=O)CN(S(=O)(=O)c2cc4cc(C5CCOC(C)(C)C5)ccc4n2[C@@]2(c4noc(=O)[nH]4)C[C@@H]2C)CCC3)cc(C)c1F (stereo partly drawn) [Compound 508, 3-[(1S,2S)-1-[5-(2,2-dimethyltetrahydropyran-4-yl)-2-[[2-(4-fluoro-3,5-dimethyl-phenyl)-3-[3-(4-fluoro-1-methyl-indazol-5-yl)-2-oxo-imidazol-1-yl]-4,6,7,8-tetrahydropyrazolo[4,3-c]azepin-5-yl]sulfonyl]indol-1-yl]-2-methyl-cyclopropyl]-4H-1,2,4-oxadiazol-5-one], the EC50 rises from 600 nM to no less than 10000 nM.

CCP(=O)(CC)c1ccc(-n2ccn(-c3c4c(nn3-c3cc(C)c(F)c(C)c3)CCCN(C(=O)c3cc5cc(C6CCOCC6)ccc5n3[C@@]3(c5noc(=O)[nH]5)C[C@@H]3C)C4)c2=O)cc1NC [Compound 506, 3-[(1S,2S)-1-[2-[3-[3-[4-diethylphosphoryl-3-(methylamino)phenyl]-2-oxo-imidazol-1-yl]-2-(4-fluoro-3,5-dimethyl-phenyl)-4,6,7,8-tetrahydropyrazolo[4,3-c]azepine-5-carbonyl]-5-tetrahydropyran-4-yl-indol-1-yl]-2-methyl-cyclopropyl]-4H-1,2,4-oxadiazol-5-one] and Cc1cc(-n2nc3c(c2-n2ccn(-c4ccc5c(cnn5C)c4F)c2=O)C2CCC([C@@H]3F)N2C(=O)c2cc3cc([C@H]4CCOC(C)(C)C4)ccc3n2[C@@]2(c3noc(=O)[nH]3)C[C@@H]2C)cc(C)c1F (stereo partly drawn) [Compound 507, cis-3-((1S,2S)-1-(5-((S)-2,2-dimethyltetrahydro-2H-pyran-4-yl)-2-(8-fluoro-3-(3-(4-fluoro-1-methyl-1H-indazol-5-yl)-2-oxo-2,3-dihydro-1H-imidazol-1-yl)-2-(4-fluoro-3,5-dimethylphenyl)-2,4,5,6,7,8-hexahydro-4,7-epiminocyclohepta [c]pyrazole-9-carbonyl)-1H-indol-1-yl)-2-methylcyclopropyl)-1,2,4-oxadiazol-5 (4H)-one] are within 1.5-fold of each other in EC50: 757 nM for the first, 630 nM for the second.

From patent US12617783B2, “Heterocyclic GLP-1R agonists” (BIOMEA FUSION, INC., priority 2024, dated 2026)
